Here are results for 23 compounds from patent US8153809B2, “Dihydropyridone ureas as P2X7 modulators” (Roche Palo Alto LLC, priority 2008, dated 2012).

In the assay the target is T1, P2X7 (UniProt Q99572).
T1 sequence (Q99572 1-595): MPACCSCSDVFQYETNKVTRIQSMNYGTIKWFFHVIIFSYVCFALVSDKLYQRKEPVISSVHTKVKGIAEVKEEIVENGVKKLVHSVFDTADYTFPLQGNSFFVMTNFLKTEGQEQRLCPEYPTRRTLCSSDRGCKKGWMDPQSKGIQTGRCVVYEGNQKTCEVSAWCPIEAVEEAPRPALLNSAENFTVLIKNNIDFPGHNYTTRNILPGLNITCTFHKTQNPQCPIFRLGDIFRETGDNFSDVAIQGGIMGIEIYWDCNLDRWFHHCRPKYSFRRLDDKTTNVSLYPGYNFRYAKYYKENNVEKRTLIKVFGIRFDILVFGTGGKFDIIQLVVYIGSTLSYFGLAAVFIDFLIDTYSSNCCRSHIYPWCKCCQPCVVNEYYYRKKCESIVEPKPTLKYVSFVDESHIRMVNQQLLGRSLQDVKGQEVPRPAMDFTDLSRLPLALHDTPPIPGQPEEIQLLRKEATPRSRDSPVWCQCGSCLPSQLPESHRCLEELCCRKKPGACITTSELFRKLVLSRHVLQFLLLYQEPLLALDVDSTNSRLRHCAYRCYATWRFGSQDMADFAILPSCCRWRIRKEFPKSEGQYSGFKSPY
The assay is described as follows: pIC50 values for P2X7 (Table 1). Format: cell-based. The method, boiled down: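 Fluo-3-loaded 1321N1 cells expressing human P2X7 or HEK293 cells expressing rat P2X7, preincubated 20 min at room temperature with antagonist in HBSS/Hepes/probenecid buffer with 2 mM CaCl2. BzATP agonist at 100 μM final (human) or 5 μM final (rat); fluorescence read 5 min, peak normalized to 5 μM ionomycin response.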
In general, pIC50 refers to −log10 of the IC50, conventionally taken in molar units. High values mean a low IC50, low ones a high IC50. The compound `COc1cc(NC(=O)N2C=CC(=O)C[C@H]2c2ccc(F)cc2)c(Br)cc1S(C)(=O)=O` [Compound 28, (S)-2-(4-Fluoro-phenyl)-4-oxo-3,4-dihydro-2H-pyridine-1-carboxylic acid (2-bromo-4-methanesulfonyl-5-methoxy-phenyl)-amide] registered a pIC50 of 6.435.
With `CC(=O)NCc1cc(NC(=O)N2C=CC(=O)C[C@H]2c2ccc(F)cc2)c(C)cc1Cl` [Compound 124, (S)-2-(4-Fluoro-phenyl)-4-oxo-3,4-dihydro-2H-pyridine-1-carboxylic acid [5-(acetylamino-methyl)-4-chloro-2-methyl-phenyl]-amide], the pIC50 is 6.98.
`Cc1cc2nccnc2cc1NC(=O)N1C=CC(=O)C[C@H]1c1ccc(F)cc1` [Compound 107, (S)-2-(4-Fluoro-phenyl)-4-oxo-3,4-dihydro-2H-pyridine-1-carboxylic acid (7-methyl-quinoxalin-6-yl)-amide] showed a negative-log IC50 (pIC50) of 7.095. The pIC50 values of the last two compounds are within 0.2 log units of each other.
As for `COC(=O)c1cccc(NC(=O)N2C=CC(=O)CC2c2ccc(F)cc2)c1C` (centres unmarked) [Compound 66, 3-{[2-(4-Fluoro-phenyl)-4-oxo-3,4-dihydro-2H-pyridine-1-carbonyl]-amino}-2-methyl benzoic acid methyl ester], the figure is 6.8.
The value for `Cc1nc2cc(NC(=O)N3C=CC(=O)CC3c3ccc(F)cc3)ccc2s1` (centres unmarked) [Compound 113, 2-(4-Fluoro-phenyl)-4-oxo-3,4-dihydro-2H-pyridine-1-carboxylic acid (2-methyl-benzothiazol-5-yl)-amide] was 5.505.
The value for `COC(=O)COc1cc(NC(=O)N2C=CC(=O)C[C@H]2c2ccc(F)cc2)c(Br)cc1Cl` [Compound 30, (4-Bromo-2-chloro-5-{[(S)-2-(4-fluoro-phenyl)-4-oxo-3,4-dihydro-2H-pyridine-1-carbonyl]-amino}-phenoxy)-acetic acid methyl ester] was 6.7; that for `CSc1cc(NC(=O)N2C=CC(=O)C[C@H]2c2ccc(F)cc2)c(Br)cc1Cl` [Compound 14, (S)-2-(4-Fluoro-phenyl)-4-oxo-3,4-dihydro-2H-pyridine-1-carboxylic acid (2-bromo-4-chloro-5-methylsulfanyl-phenyl)-amide] was 6.726.
`COc1cc(NC(=O)N2C=CC(=O)C[C@H]2c2ccc(F)cc2)c(Br)cc1C(F)(F)F` [Compound 8, (S)-2-(4-Fluoro-phenyl)-4-oxo-3,4-dihydro-2H-pyridine-1-carboxylic acid (2-bromo-5-methoxy-4-trifluoromethyl-phenyl)-amide]: the pIC50 is on record as 6.09.
As for `Cc1cc(Cl)c(CN(CCO)CCO)cc1NC(=O)N1C=CC(=O)C[C@H]1c1ccc(F)cc1` [Compound 127, (S)-2-(4-Fluoro-phenyl)-4-oxo-3,4-dihydro-2H-pyridine-1-carboxylic acid (5-{[bis(2-hydroxy-ethyl)-amino]-methyl}-4-chloro-2-methyl-phenyl)-amide], the figure is 7.615.
The value for `COC(=O)c1cc(Br)c(NC(=O)N2C=CC(=O)CC2c2ccc(F)cc2)cc1OC` (centres unmarked) [Compound 22, 5-Bromo-4-{[2-(4-fluoro-phenyl)-4-oxo-3,4-dihydro-2H-pyridine-1-carbonyl]-amino}-2-methoxy-benzoic acid methyl ester] was 7.15; that for `COc1cc(NC(=O)N2C=CC(=O)C[C@H]2c2ccc(F)cc2)ccc1Cl` [Compound 71, (S)-2-(4-Fluoro-phenyl)-4-oxo-3,4-dihydro-2H-pyridine-1-carboxylic acid (4-chloro-3-methoxy-phenyl)-amide] was 6.245.
The value for `Cc1cc(Cl)c(CCO)cc1NC(=O)N1C=CC(=O)C[C@H]1c1ccc(F)cc1` [Compound 133, (S)-2-(4-Fluoro-phenyl)-4-oxo-3,4-dihydro-2H-pyridine-1-carboxylic acid [4-chloro-5-(2-hydroxy-ethyl)-2-methyl-phenyl]-amide] was 8.06; that for `COC(=O)c1cccc(NC(=O)N2C=CC(=O)C[C@H]2c2ccc(F)cc2)c1C` [Compound 93, 3-{[(S)-2-(4-Fluoro-phenyl)-4-oxo-3,4-dihydro-2H-pyridine-1-carbonyl]-amino}-2-methyl-benzoic acid methyl ester] was 7.44.
Consider `Cc1ccc(NC(=O)N2C=CC(=O)C[C@H]2c2ccc(F)cc2)cc1C` [Compound 158, (S)-2-(4-Fluoro-phenyl)-4-oxo-3,4-dihydro-2H-pyridine-1-carboxylic acid (3,4-dimethyl-phenyl)-amide], for which the negative-log IC50 (pIC50) came to 7.01.
The value for `Cc1ccc(C)c(NC(=O)N2C=CC(=O)C[C@H]2c2ccc(F)cc2)c1` [Compound 95, (S)-2-(4-Fluoro-phenyl)-4-oxo-3,4-dihydro-2H-pyridine-1-carboxylic acid (2,5-dimethyl-phenyl)-amide] was 7.9775.
The value for `O=C1C=CN(C(=O)Nc2cc(I)c(Cl)cc2Br)[C@H](c2ccc(F)cc2)C1` [Compound 10, (S)-2-(4-Fluoro-phenyl)-4-oxo-3,4-dihydro-2H-pyridine-1-carboxylic acid (2-bromo-4-chloro-5-iodo-phenyl)-amide] was 6.5175.
As for `Cc1cc(F)c(OCCO)cc1NC(=O)N1C=CC(=O)C[C@H]1c1ccc(F)cc1` [Compound 111, (S)-2-(4-Fluoro-phenyl)-4-oxo-3,4-dihydro-2H-pyridine-1-carboxylic acid [4-fluoro-5-(2-hydroxy-ethoxy)-2-methyl-phenyl]-amide], the figure is 8.12; as for `COc1cc(NC(=O)N2C=CC(=O)C[C@H]2c2ccc(F)cc2)c(Br)cc1Cl` [Compound 5, (S)-2-(4-Fluoro-phenyl)-4-oxo-3,4-dihydro-2H-pyridine-1-carboxylic acid (2-bromo-4-chloro-5-methoxy-phenyl)-amide], 7.4325; as for `O=C1C=CN(C(=O)Nc2cc3[nH]c(=O)[nH]c3cc2Br)C(c2ccc(F)cc2)C1` (centres unmarked) [Compound 112, 2-(4-Fluoro-phenyl)-4-oxo-3,4-dihydro-2H-pyridine-1-carboxylic acid (6-bromo-2-oxo-2,3-dihydro-1H-benzoimidazol-5-yl)-amide], 5.93.
As to `COC(=O)c1cc(Br)c(NC(=O)N2C=CC(=O)C[C@H]2c2ccc(F)cc2)cc1OC` [Compound 38, 5-Bromo-4-{[(S)-2-(4-fluoro-phenyl)-4-oxo-3,4-dihydro-2H-pyridine-1-carbonyl]-amino}-2-methoxy-benzoic acid methyl ester], the pIC50 was determined as 6.89.
For `COc1cc(Br)c(NC(=O)N2C=CC(=O)C[C@H]2c2ccc(F)cc2)cc1OC` [Compound 3, (S)-2-(4-Fluoro-phenyl)-4-oxo-3,4-dihydro-2H-pyridine-1-carboxylic acid (2-bromo-4,5-dimethoxy-phenyl)-amide], the pIC50 turned out to be 8.055.
Take `Cc1cc2ncccc2cc1NC(=O)N1C=CC(=O)C[C@H]1c1ccc(F)cc1` [Compound 74, (S)-2-(4-Fluoro-phenyl)-4-oxo-3,4-dihydro-2H-pyridine-1-carboxylic acid (7-methyl-quinolin-6-yl)-amide]: the pIC50 worked out at 7.35.
The value for `CN1C(=O)CCc2cc(Br)c(NC(=O)N3C=CC(=O)C[C@H]3c3ccc(F)cc3)cc21` [Compound 128, (S)-2-(4-Fluoro-phenyl)-4-oxo-3,4-dihydro-2H-pyridine-1-carboxylic acid (6-bromo-1-methyl-2-oxo-1,2,3,4-tetrahydro-quinolin-7-yl)-amide] was 7.595.
